Converted amounts (≈) assume the structure as drawn.
Columns and labels:
B. subtilis [1] = assay: Modified disk diffusion, inhibition zone; conditions: B. subtilis (G+)
S. aureus [2] = assay: Modified disk diffusion, inhibition zone; conditions: S. aureus (G+)
E. coli [3] = assay: Modified disk diffusion, inhibition zone; conditions: E. coli (G-)
P. aeruginosa [4] = assay: Modified disk diffusion, inhibition zone; conditions: P. aeruginosa (G-)
A. flavus [5] = assay: Modified disk diffusion, inhibition zone; conditions: A. flavus (fungi)
C. albicans [6] = assay: Modified disk diffusion, inhibition zone; conditions: C. albicans (fungi)
B. subtilis [7] = assay: MIC assay, 2-fold serial dilution in 96-well microtiter plate; format: cell-based, Bacillus subtilis (ATCC 6051); conditions: Bacillus subtilis, read-out: MIC
Description: (§1) The outcomes of this in vitro assay test align with the results of the antimicrobial sensitivity test.
(§2) Appendix A (Supplementary File) provides experimental details.
(§3) In 96-well microtiter plates and […] of fresh bacterial culture of a single McFarland unit overnight, a double serial dilution of each compound […] in sterile standard saline were prepared to every single source well. […] The plates were incubated at 37 °C overnight. As an indicator of bacterial growth, […] of p-iodonitrotetrazolium violet (INT) was added to each well and incubated at 37 °C for 30 min. […] The colorless tetrazolidium salt acts as an electron accepter and is reduced to a red colored formazan product by biological activity organisms. Where bacterial growth was inhibited, the solution in the well remained clear after incubation with INT.

S. aureus [8] = assay: as above; format: cell-based, Staphylococcus aureus (ATCC 12600); conditions: Staphylococcus aureus, read-out: MIC
Description: as §1, §2, §3

E. coli [9] = assay: as above; format: cell-based, Escherichia coli (ATCC 11775); conditions: Escherichia coli, read-out: MIC
Description: as §1, §2, §3

P. aeruginosa [10] = assay: as above; format: cell-based, Pseudomonas aeuroginosa (ATCC 10145); conditions: Pseudomonas aeruginosa, read-out: MIC
Description: as §1, §2, §3

B. subtilis [11] = assay: Minimum bactericidal concentration (MBC) assay; format: cell-based, Bacillus subtilis; conditions: Bacillus subtilis, read-out: MBC
Text: (§4) The MBC differs from the MIC. […] Unlike the MBC, which leads to mortality, the MIC hinders bacterial growth without causing death.[41] The common expression for MBC is MBC50, signifying the antibiotic concentration that eliminates 50% of the initial bacterial population.[42]

S. aureus [12] = assay: Minimum bactericidal concentration (MBC) assay; format: cell-based, Staphylococcus aureus; conditions: Staphylococcus aureus, read-out: MBC
Text: as §4

E. coli [13] = assay: Minimum bactericidal concentration (MBC) assay; format: cell-based, Escherichia coli; conditions: Escherichia coli, read-out: MBC
Text: as §4

P. aeruginosa [14] = assay: Minimum bactericidal concentration (MBC) assay; format: cell-based, Pseudomonas aeuroginosa; conditions: Pseudomonas aeruginosa, read-out: MBC
Text: as §4

A. flavus [15] = assay: Antifungal MIC assay, 2-fold serial dilution; format: cell-based, Aspergillus flavus; conditions: Aspergillus flavus, read-out: MIC
C. albicans [16] = assay: Antifungal MIC assay, 2-fold serial dilution; format: cell-based, Candida albicans; conditions: Candida albicans, read-out: MIC
E. coli DNA gyrase = molecular target: T1, E. coli DNA gyrase (Escherichia coli, UniProt P0AES6); assay: DNA gyrase inhibitory (supercoiling) assay; format: biochemical
T1 construct: purchased Inspiralis
Description: (§5) IC50 values were determined using seven different inhibitor concentrations and then calculated using the GraphPad Prism 6.0 software.
All the final compounds were tested for E. coli DNA gyrase inhibitory activity in a supercoiling assay. Activities were determined on streptavidin-coated 96-well microtiter plates from Thermo scientific Pierce. […] After washing off the unbound oligonucleotide, the enzyme test was performed. […] After that, the TF buffer (50 mM NaOAc with pH 5.0, 50 mM NaCl and 50 mM MgCl2) was added to terminate the enzymatic reaction. After additional incubation for 30 min at rt, during which biotin-oligonucleotide-plasmid triplex was formed, the unbound plasmid was washed off using TF buffer and SybrGOLD in T10 buffer (10 mM Tris HCl with pH 8.0 and 1 mM EDTA) was added. […] Initial screening was done at 100 or 10 μM concentration of inhibitors. […] GraphPad Prism software was used to calculate the IC50 values. The result is given as the average value of three independent measurements.

DHFR E. coli = molecular target: T2, DHFR E. coli (Escherichia coli, UniProt P0ABQ4); assay: DHFR inhibitory assay; format: biochemical
T2 construct: purchased Inspiralis
Description: as §5

[17] = tested on: Gram-positive and Gram-negative bacteria (B. subtilis, S. aureus, E. coli, P. aeruginosa); assay: Disk diffusion, inhibition zones summarised over the tested bacterial strains; conditions: over the four tested bacterial strains

T2 sequence (P0ABQ4 whole entry): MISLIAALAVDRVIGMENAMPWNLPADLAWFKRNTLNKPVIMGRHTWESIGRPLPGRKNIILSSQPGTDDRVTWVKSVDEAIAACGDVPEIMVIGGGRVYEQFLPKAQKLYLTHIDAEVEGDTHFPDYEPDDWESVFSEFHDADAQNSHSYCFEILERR

Structure (SMILES)	melting point [°C]	Inhibition Zone (IZ) Diameter (B. subtilis [1]) [mm/mL]	Inhibition Zone (IZ) Diameter (S. aureus [2])	Inhibition Zone (IZ) Diameter (E. coli [3]) [mm/mL]	Inhibition Zone (IZ) Diameter (P. aeruginosa [4]) [mm/mL]	Inhibition Zone (IZ) Diameter (A. flavus [5]) [mm/mL]	Inhibition Zone (IZ) Diameter (C. albicans [6]) [mm]	MIC (B. subtilis [7]) [µM]	MIC (S. aureus [8]) [µM]	MIC (E. coli [9]) [µM]	MIC (P. aeruginosa [10]) [µM]	MBC (B. subtilis [11]) [µM]	MBC (S. aureus [12]) [µM]	MBC (E. coli [13]) [µM]	MBC (P. aeruginosa [14]) [µM]	MIC (A. flavus [15]) [µM]	MIC (C. albicans [16]) [µM]	IC50 (E. coli DNA gyrase) [µM]	IC50 (DHFR E. coli) [µM]	Inhibition Zone (IZ) Diameter [17]
c1ccc(-c2cc(-c3ccccc3)n3nc(-c4ccccc4)nc3n2)cc1 [Compound 9a, 2,5,7-Triphenyl-1,2,4-triazolo[1,5-a]pyrimidine]	210 to 212	12	14	14	12	7	10	–	–	–	–	–	–	–	–	–	–	–	–	–
Clc1ccc(-c2cc(-c3ccccc3)nc3nc(-c4ccccc4)nn23)cc1 [Compound 9b, 7-(4-Chlorophenyl)-2,5-diphenyl-1,2,4-triazolo[1,5-a]pyrimidine]	214 to 216	21	23	23	24	11	15	–	–	–	–	–	–	–	–	–	–	–	–	–
Cc1ccc(-c2cc(-c3ccccc3)nc3nc(-c4ccccc4)nn23)cc1 [Compound 9c, 2,5-Diphenyl-7-p-tolyl-1,2,4-triazolo[1,5-a]pyrimidine]	218 to 220	11	15	13	13	7	10	–	–	–	–	–	–	–	–	–	–	–	–	–
COc1ccc(-c2cc(-c3ccccc3)nc3nc(-c4ccccc4)nn23)cc1 [Compound 9d, 7-(4-Methoxyphenyl)-2,5-diphenyl-1,2,4-triazolo[1,5-a]pyrimidine]	–	35	35	33	34	27	30	0.038 ± 0.002 (≈ 0.0144 µg/mL)	0.039 ± 0.002 (≈ 0.0148 µg/mL)	0.073 ± 0.005 (≈ 0.0276 µg/mL)	0.075 ± 0.005 (≈ 0.0284 µg/mL)	0.064 ± 0.003 (≈ 0.0242 µg/mL)	0.071 ± 0.004 (≈ 0.0269 µg/mL)	0.102 ± 0.007 (≈ 0.0386 µg/mL)	0.109 ± 0.007 (≈ 0.0412 µg/mL)	21.5 ± 1 (≈ 8.14 µg/mL)	26.3 ± 1 (≈ 9.95 µg/mL)	0.217 ± 0.013	5.9 ± 0.2	–
Clc1ccc(-c2cc(-c3ccccc3)n3nc(-c4ccccc4)nc3n2)cc1 [Compound 9e, 5-(4-Chlorophenyl)-2,7-diphenyl-1,2,4-triazolo[1,5-a]pyrimidine]	260 to 262	10	12	12	11	5	8	–	–	–	–	–	–	–	–	–	–	–	–	–
Clc1ccc(-c2cc(-c3ccc(Cl)cc3)n3nc(-c4ccccc4)nc3n2)cc1 [Compound 9f, 5,7-Bis(4-Chlorophenyl)-2-phenyl-1,2,4-triazolo[1,5-a]pyrimidine]	202 to 204	14	15	15	18	8	12	–	–	–	–	–	–	–	–	–	–	–	–	–
Cc1ccc(-c2cc(-c3ccc(Cl)cc3)nc3nc(-c4ccccc4)nn23)cc1 [Compound 9g, 5-(4-Chlorophenyl)-2-phenyl-7-p-tolyl-1,2,4-triazolo[1,5-a]pyrimidine]	248 to 250	19	20	20	18	9.0	11	–	–	–	–	–	–	–	–	–	–	–	–	18–20 mm
COc1ccc(-c2cc(-c3ccc(Cl)cc3)nc3nc(-c4ccccc4)nn23)cc1 [Compound 9h, 5-(4-Chlorophenyl)-7-(4-methoxyphenyl)-2-phenyl-1,2,4-triazolo[1,5-a]pyrimidine]	–	9	–	11	12	5	–	–	–	–	–	–	–	–	–	–	–	–	–	–
Cc1ccc(-c2cc(-c3ccccc3)n3nc(-c4ccccc4)nc3n2)cc1 [Compound 9i, 2,7-Diphenyl-5-p-tolyl-1,2,4-triazolo[1,5-a]pyrimidine]	–	28	–	30	29	17	–	–	–	–	–	–	–	–	–	–	–	–	–	–
Cc1ccc(-c2cc(-c3ccc(Cl)cc3)n3nc(-c4ccccc4)nc3n2)cc1 [Compound 9j, 7-(4-Chlorophenyl)-2-phenyl-5-p-tolyl-1,2,4-triazolo[1,5-a]-pyrimidine]	–	20	–	20	20	10	–	–	–	–	–	–	–	–	–	–	–	–	–	–
Cc1ccc(-c2cc(-c3ccc(C)cc3)n3nc(-c4ccccc4)nc3n2)cc1 [Compound 9k, 2-Phenyl-5,7-di-p-tolyl-1,2,4-triazolo[1,5-a]pyrimidine]	224 to 226	32	32	30	30	22	25	–	–	–	–	–	–	–	–	–	–	–	–	30–32 mm
COc1ccc(-c2cc(-c3ccc(C)cc3)nc3nc(-c4ccccc4)nn23)cc1 [Compound 9l, 7-(4-Methoxyphenyl)-2-phenyl-5-p-tolyl-1,2,4-triazolo[1,5-a]pyrimidine]	222 to 224	23	26	23	22	15	17	–	–	–	–	–	–	–	–	–	–	–	–	–
COc1ccc(-c2cc(-c3ccccc3)n3nc(-c4ccccc4)nc3n2)cc1 [Compound 9m, 5-(4-Methoxyphenyl)-2,7-diphenyl-1,2,4-triazolo[1,5-a]pyrimidine]	222 to 224	31	32	30	30	20	23	–	–	–	–	–	–	–	–	–	–	–	–	approximately 30 mm

— PMC11603275, “Synthesis and Antimicrobial Evaluation of New 1,2,4-Triazolo[1,5-a]pyrimidine-Based Derivatives as Dual Inhibitors of Bacterial DNA Gyrase and DHFR” (ACS Omega, 2024)
